Drawing on PubChem BioAssay AID180 (DTP/NCI, 2004), this text covers T/C for 16 molecules.

The assay relates to BDF1 mice, Adenocarcinoma 755 s.c., tumor weight T/C. Kind of assay: NCI In Vivo Anticancer Drug Screen. Data for tumor model Adenocarcinoma 755 (subcutaneous) in B6D2F1 (BDF1) mice. Particulars: endpoint: mean tumor weight, higher = larger tumour. The essentials:
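Values express treated (T) relative to vehicle-dosed control (C) animals, based on survival or tumour size measured after compound treatment of mice bearing a transplanted tumour.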

The mark [1] stands for this setting: dose: 0.94 mg/kg/injection, schedule: Q01DX011 (ip), vehicle: carboxymethylcellulose (CMC).
[2] abbreviates: dose: 25.0 mg/kg/injection, schedule: Q01DX011 (ip), vehicle: methylcellulose (MC).
The mark [3] stands for this setting: dose: 50.0 mg/kg/injection, schedule: Q01DX011 (ip), vehicle: methylcellulose (MC).
[4] abbreviates: dose: 100.0 mg/kg/injection, schedule: Q01DX011 (ip), vehicle: methylcellulose (MC).
Setting [5] is: dose: 12.5 mg/kg/injection, schedule: Q01DX011 (ip), vehicle: methylcellulose (MC).
[6] abbreviates: dose: 30.0 mg/kg/injection, schedule: Q01DX011 (ip), vehicle: carboxymethylcellulose (CMC).
The mark [7] stands for this setting: dose: 60.0 mg/kg/injection, schedule: Q01DX011 (ip), vehicle: carboxymethylcellulose (CMC).

The term T/C denotes the result in the treated group divided by that in the control group, in per cent.

Several values for one entry are separate records, joined by “and”; a condition that tells them apart may be missing. Equal entries are not always repeated.

In the case of `Nc1ncnc2[nH]ncc12`, the T/C was 78 % of control under setting [1]; 69 % of control (dose: 1.1 mg/kg/injection, schedule: Q01DX011 (ip), vehicle: carboxymethylcellulose (CMC)); 73 % of control (dose: 1.41 mg/kg/injection, schedule: Q01DX011 (ip), vehicle: carboxymethylcellulose (CMC)); 67 % of control (dose: 1.5 mg/kg/injection, schedule: Q01DX011 (ip), vehicle: carboxymethylcellulose (CMC)); 54 % of control and 61 % of control (dose: 1.88 mg/kg/injection, schedule: Q01DX011 (ip), vehicle: carboxymethylcellulose (CMC)); 32 % of control (dose: 2.5 mg/kg/injection, schedule: Q01DX011 (ip), vehicle: carboxymethylcellulose (CMC)). Moreover, the T/C by setting is: (dose: 3.1 mg/kg/injection, schedule: Q01DX011 (ip), vehicle: carboxymethylcellulose (CMC)) 74 % of control; (dose: 3.75 mg/kg/injection, schedule: Q01DX011 (ip), vehicle: carboxymethylcellulose (CMC)) 31 % of control and 36 % of control; (dose: 4.52 mg/kg/injection, schedule: Q01DX011 (ip), vehicle: carboxymethylcellulose (CMC)) 108 % of control; (dose: 5.65 mg/kg/injection, schedule: Q01DX011 (ip), vehicle: carboxymethylcellulose (CMC)) 50 % of control and 63 % of control; (dose: 6.2 mg/kg/injection, schedule: Q01DX011 (ip), vehicle: carboxymethylcellulose (CMC)) 6 % of control; (dose: 7.5 mg/kg/injection, schedule: Q01DX011 (ip), vehicle: carboxymethylcellulose (CMC)) 5 % of control and 6 % of control. Also, the T/C is, setting by setting: (dose: 7.53 mg/kg/injection, schedule: Q01DX011 (ip), vehicle: carboxymethylcellulose (CMC)) 36 % of control; (dose: 11.3 mg/kg/injection, schedule: Q01DX011 (ip), vehicle: carboxymethylcellulose (CMC)) 31 % of control.
Consider `O=C1OC(c2cc(I)c(O)c(I)c2)(c2cc(I)c(O)c(I)c2)c2ccccc21`, for which the T/C (dose: 0.38 mg/kg/injection, schedule: Q01DX011 (ip), vehicle: carboxymethylcellulose (CMC)) was 107 % of control; the T/C (dose: 0.76 mg/kg/injection, schedule: Q01DX011 (ip), vehicle: carboxymethylcellulose (CMC)) is 68 % of control; the T/C (dose: 1.56 mg/kg/injection, schedule: Q01DX011 (ip), vehicle: carboxymethylcellulose (CMC)) was 68 % of control.
For `[I][Hg][CH2][C@H]1CO[C@H]([CH2][Hg][I])CO1`, the T/C (dose: 6.0 mg/kg/injection, schedule: Q01DX011 (ip), vehicle: carboxymethylcellulose (CMC)) is 95 % of control; the T/C (dose: 12.0 mg/kg/injection, schedule: Q01DX011 (ip), vehicle: carboxymethylcellulose (CMC)) was 46 % of control; the T/C (dose: 25.0 mg/kg/injection, schedule: Q01DX011 (ip), vehicle: carboxymethylcellulose (CMC)) was 32 % of control and 33 % of control; the T/C (dose: 50.0 mg/kg/injection, schedule: Q01DX011 (ip), vehicle: carboxymethylcellulose (CMC)) was 21 % of control.
Consider `C=C1CN(CC)CCO1`, for which the T/C (dose: 50.0 mg/kg/injection, schedule: Q01DX011 (ip), vehicle: other) is 73 % of control and the T/C (dose: 100.0 mg/kg/injection, schedule: Q01DX011 (ip), vehicle: other) is 72 % of control.
For the molecule `Nc1n[nH]c(N)n1`, the T/C is 55 % of control (dose: 300.0 mg/kg/injection, schedule: Q01DX011 (ip), vehicle: methylcellulose (MC)); 58 % of control (dose: 400.0 mg/kg/injection, schedule: Q01DX011 (ip), vehicle: methylcellulose (MC)); 44 % of control (dose: 500.0 mg/kg/injection, schedule: Q01DX011 (ip), vehicle: methylcellulose (MC)).
As for `Nc1nc(=S)cc(Nc2ccccc2Cl)[nH]1`, the T/C was 101 % of control (dose: 31.0 mg/kg/injection, schedule: Q01DX011 (ip), vehicle: methylcellulose (MC)); 156 % of control (dose: 62.0 mg/kg/injection, schedule: Q01DX011 (ip), vehicle: methylcellulose (MC)); 93 % of control (dose: 125.0 mg/kg/injection, schedule: Q01DX011 (ip), vehicle: methylcellulose (MC)); 122 % of control (dose: 250.0 mg/kg/injection, schedule: Q01DX011 (ip), vehicle: methylcellulose (MC)).
Take `CC(C)CSc1nc(N)nc2c1ncn2CC(C)C`: the T/C runs as follows: under setting [2], 21 % of control; under setting [3], 12 % of control; under setting [4], 1 % of control.
Regarding `CCCCNc1ncnc2c1cnn2C1CCCCO1` (stereo not drawn), the T/C is, setting by setting: (dose: 3.12 mg/kg/injection, schedule: Q01DX011 (ip), vehicle: methylcellulose (MC)) 39 % of control; (dose: 6.25 mg/kg/injection, schedule: Q01DX011 (ip), vehicle: methylcellulose (MC)) 44 % of control; under setting [5], 20 % of control; under setting [2], 12 % of control.
As to `N#CCSc1nc(N)nc2nc[nH]c12`, the T/C (dose: 0.5 mg/kg/injection, schedule: Q01DX011 (ip), vehicle: carboxymethylcellulose (CMC)) is 82 % of control; the T/C (dose: 1.0 mg/kg/injection, schedule: Q01DX011 (ip), vehicle: carboxymethylcellulose (CMC)) is 63 % of control; the T/C (dose: 2.0 mg/kg/injection, schedule: Q01DX011 (ip), vehicle: carboxymethylcellulose (CMC)) is 70 % of control.
In the case of `Nc1ncnc2c1cnn2C1CCCCO1` (stereo not drawn), the T/C is 74 % of control (dose: 1.75 mg/kg/injection, schedule: Q01DX011 (ip), vehicle: methylcellulose (MC)); 50 % of control (dose: 3.5 mg/kg/injection, schedule: Q01DX011 (ip), vehicle: methylcellulose (MC)); 21 % of control (dose: 7.0 mg/kg/injection, schedule: Q01DX011 (ip), vehicle: methylcellulose (MC)); 1 % of control (dose: 14.0 mg/kg/injection, schedule: Q01DX011 (ip), vehicle: methylcellulose (MC)).
Regarding `C[C@H]1C[C@@H]2[C@H]([C@@H](O)C[C@@]3(C)[C@H]2CC[C@]3(O)C(=O)CO)[C@@]2(C)C=CC(=O)C=C12`, the T/C was 21 % of control (dose: 14.3 mg/kg/injection, schedule: Q01DX011 (sc), vehicle: steriod suspending solution); 48 % of control and 56 % of control (dose: 14.3 mg/kg/injection, schedule: Q01DX011 (sc), vehicle: water); 8 % of control (dose: 28.5 mg/kg/injection, schedule: Q01DX011 (sc), vehicle: steriod suspending solution); 25 % of control and 47 % of control (dose: 28.5 mg/kg/injection, schedule: Q01DX011 (sc), vehicle: water); 1 % of control (dose: 57.0 mg/kg/injection, schedule: Q01DX011 (sc), vehicle: steriod suspending solution); 5 % of control and 29 % of control (dose: 57.0 mg/kg/injection, schedule: Q01DX011 (sc), vehicle: water). The T/C reads like this: (dose: 114.0 mg/kg/injection, schedule: Q01DX011 (sc), vehicle: steriod suspending solution) 1 % of control; (dose: 114.0 mg/kg/injection, schedule: Q01DX011 (sc), vehicle: water) 3 % of control.
Consider `CSc1nc(Cl)cc2nc(Cl)cn12`, for which the T/C under setting [6] is 110 % of control and the T/C under setting [7] is 111 % of control.
As to `NC(=O)c1ccc(NC(=O)/C=C/C(=O)Nc2ccc(C(N)=O)cn2)nc1`, the T/C was 75 % of control (dose: 0.47 mg/kg/injection, schedule: Q01DX011 (ip), vehicle: carboxymethylcellulose (CMC)); 69 % of control under setting [1]; 28 % of control (dose: 1.87 mg/kg/injection, schedule: Q01DX011 (ip), vehicle: carboxymethylcellulose (CMC)).
Take `CN(Cc1ccccc1)c1ncnc2[nH]ncc12`: the T/C was 42 % of control under setting [5], 62 % of control under setting [2], 10 % of control under setting [3] and 2 % of control under setting [4].
As to `c1cc[nH]c1`, the T/C is, setting by setting: (dose: 40.0 mg/kg/injection, schedule: Q01DX011 (ip), vehicle: carboxymethylcellulose (CMC)) 101 % of control; (dose: 80.0 mg/kg/injection, schedule: Q01DX011 (ip), vehicle: carboxymethylcellulose (CMC)) 68 % of control; (dose: 160.0 mg/kg/injection, schedule: Q01DX011 (ip), vehicle: carboxymethylcellulose (CMC)) 113 % of control.
Consider `Nc1ncnc2c1nc(Br)n2C1CC(O)C(CO)O1` (stereo not drawn), for which the T/C is 89 % of control under setting [6]; 89 % of control under setting [7]; 75 % of control (dose: 120.0 mg/kg/injection, schedule: Q01DX011 (ip), vehicle: carboxymethylcellulose (CMC)); 123 % of control (dose: 240.0 mg/kg/injection, schedule: Q01DX011 (ip), vehicle: carboxymethylcellulose (CMC)).
